Laboratory results from paper PMC6723587 (Toxins, 2019).
Read-outs that look alike come from different tables or passages of the source.

Tests used:
[1] = for the sum of DON, DON3G, 3-ADON and 15-ADON; EFSA; cited from earlier work
[2] = in vivo
[3] = test system: human cytosolic beta-glucosidases; conditions: in vitro incubation; cited from earlier work
[4] = cited from earlier work
[5] = pigs, oral single dose DON3G 56 µg/kg bw; cited from earlier work
[6] = in vivo; remark: listed apart in the source
[7] = pigs, cited from earlier work
[8] = oral single dose DON3G 116 µg/kg bw

Structure (SMILES): CC(=O)OC[C@]12[C@H](O)C(=O)C(C)=C[C@H]1O[C@@H]1[C@H](O)C[C@@]2(C)[C@]12CO2 [15-ADON, 15-acetyldeoxynivalenol]
- tolerable daily intake (group-TDI) [1]: 1 µg/kg body weight (bw)/day

Structure (SMILES): CC(=O)O[C@@H]1C[C@]2(C)[C@@]3(CO)[C@H](O)C(=O)C(C)=C[C@H]3O[C@H]1[C@@]21CO1 [3-ADON, 3-acetyldeoxynivalenol]
- tolerable daily intake (group-TDI) [1]: 1 µg/kg body weight (bw)/day

Structure (SMILES): CC1=C[C@H]2O[C@@H]3[C@H](O)C[C@](C)([C@@]2(CO)[C@H](O)C1=O)[C@]31CO1 [DON, deoxynivalenol]
- Fabs (fraction absorbed) ([2]; both, human, po): 0.56
- maximum percentage absorbed in the volunteers ([2]; both, human, po): 98%
- percentage absorbed, variation among the volunteers ([2]; both, human, po): 30-98%
- tolerable daily intake (group-TDI) [1]: 1 µg/kg body weight (bw)/day

Structure (SMILES): CC1=C[C@H]2O[C@@H]3[C@H](O[C@@H]4O[C@H](CO)[C@@H](O)[C@H](O)[C@H]4O)C[C@](C)([C@@]2(CO)[C@H](O)C1=O)[C@]31CO1 [DON3G, deoxynivalenol-3-glucoside]
- hydrolysis by human cytosolic beta-glucosidases [3]: did not hydrolyse
- detection in urine [2]: Neither DON3G nor DOM-1 was detected
- detectability in urine twelve hours after administration ([4]; single dose of DON3G): not detectable
- detection in systemic plasma and vena porta plasma [5]: could not be detected
- urine sample with the maximum excreted amount [6]: first voided urine sample
- Fabs (fraction absorbed) ([6]; po): 0.53
- Ke (excretion rate constant) ([6]; po): 0.018
- maximum percentage absorbed in the volunteers ([6]; po): 84%
- part absorbed as glucoside, % of the oral dose of DON3G ([6]; po): < 5%
- percentage absorbed, variation among the volunteers ([6]; po): 29-84%
- total amount excreted unchanged in urine, % of the administered dose ([6]; po): 1-5%
- tolerable daily intake (group-TDI) [1]: 1 µg/kg body weight (bw)/day
- part of the dose excreted in urine during the first 8 h [7, 8]: approximately 2.5%
- part of the dose excreted in urine during the rest of the 24-hour collection period [7, 8]: 1%
- presence in urine after oral administration [7]: found in urine

Structure (SMILES): C=C1[C@@H]2O[C@@H]3C=C(C)C(=O)[C@@H](O)[C@]3(CO)[C@@]1(C)C[C@H]2O [DOM-1, de-epoxy-deoxynivalenol]
- detection in urine [2]: Neither DON3G nor DOM-1 was detected
- part of total DON3G recovered in urine ([4]; after administration of DON3G): approximately 7%
